Patent US20140243400A1, “COMPOSITIONS COMPRISING CITRIC ACID AND MALIC ACID AND METHODS AND USES THEREOF” (University of Alaska Anchorage, priority 2013, published 2014)
Entries after “also recorded” stand apart in the source; their conditions may differ.

How the values were obtained:
[1] = test system: neutral sphingomyelinase (nSMase); test: nSMase-mediated ceramide release in TNF-α-treated neuroblastomas; assay type: cell-based; conditions: neuroblastomas treated with TNF-α in conjunction with citrate or malate at 0.5 μg/ml
Description: Neuroblastomas were not treated (NT) or treated with tumor necrosis factor α (TNF-α), either alone or in conjunction with citrate or malate at 0.5 μg/ml.
Ceramides and ceramide metabolites are important intracellular signaling molecules which influence inflammation, proliferative and apoptotic processes, neurodegeneration, and insulin sensitivity. Elevated ceramides are associated with neurodegenerative disorders including Alzheimer's and Parkinson's disease as well as normal aging.

[2] = test system: SH-SY5Y human neuroblastoma cells; test: Intracellular malate after malate pretreatment and peroxide insult; assay type: cell-based
Description: Intracellular malate decreases 20% in the first 30 minutes following peroxide treatment and continues to slowly decrease over the rest of the time course. SH-SY5Y human neuroblastoma cells were grown to 90% confluency on 100 mm tissue culture dishes in 10% FBS supplemented DMEM, serum starved for 12 hours, and treated with 100 μM H2O2 in serum free DMEM for either 0, 15, 30, 45, 60, or 90 minutes. All treatments were performed in triplicate. Following treatment, neurons were rinsed with PBS, harvested and evaluated for total […] via abcam malate assay kit (ab83391). […] Cells were treated with 0.5 μg/mL malate in serum free DMEM for 1 hour prior to peroxide insult. Malate supplementation increased intracellular malate by nearly 50%.

[3] = Tolerability of oral malate in aged rats; assay type: in vivo; conditions: 24 aged rats, 200 mg/Kg orally, voluntary consumption in water
[4] = test system: Fischer F344 inbred rats; test: Spatial memory, rewarded alternation in T-maze, aged rats; assay type: in vivo; conditions: for T-maze alternation: 200 mg/Kg in water, 6 weeks supplementation; for spatial memory vs control rats: aged F344 rats, 200 mg/Kg, T-maze
Description: Spatial memory was measured by alternation in a T-maze. […] Both aged groups supplemented with malic acid performed equivalently to non-impaired rats, at 85% correct alternation, or better.
24 male Fischer F344 inbred rats were evaluated at 10 months and 23 months of age. Half were provided supplemental dietary malate. Following 6 weeks supplementation, spatial memory was evaluated using a rewarded alternation procedure in a T-maze apparatus (10 trials per subject). Healthy, non-impaired, rats alternate at 85% while hippocampectomized rats incapable of encoding spatial memories alternate at chance, 50%. […] The 23 month old, control, rats were severely impaired, hardly scoring better than chance, at 57% alternation. 23 month old malate-supplemented rats alternated at 85%, a score equivalent to a young, not impaired rat. (FIG. 10).

[5] = test system: SH-SY5Y human neuroblastoma cells; test: Intracellular GSH after malate pretreatment and peroxide insult; assay type: cell-based; conditions: 0.5 μg/mL malate for 1 hour prior to peroxide insult
Description: GSH is widely considered the cornerstone of endogenous redox defense. Intracellular concentrations of total GSH clearly decrease in response to oxidative insult, confirming GSH is actively consumed as part of the endogenous redox defense response in human neurons, specifically to produce regenerate antioxidative enzymes. […] All treatments were performed in triplicate. Following treatment, neurons were rinsed with PBS and evaluated for total GSH (excluding GSSG) via Promega GSH-Glo Glutathione Assay. The assay is based on the conversion of a lucifin derivative into lucifierin in the presence of GSH. […] Cells were treated with 0.5 μg/mL malate in serum free DMEM for 1 hour prior to peroxide insult.

| nSMase-mediated ceramide release / nSMase activation ([1]; listed as Citrate) | Compound | nSMase-mediated ceramide release / nSMase activation [1] | intracellular malate after peroxide insult ([2]; 0.5 μg/mL malate for 1 hour prior to peroxide insult) | increase of intracellular malate ([2]; 0.5 μg/mL malate in serum free DMEM for 1 hour) [%] | ill effects observed [3] | T-maze alternation ([4]; 10 month old F344 rats) [%] | T-maze alternation ([4]; 23 month old F344 rats) [%] | spatial memory vs control rats [4] | spatial memory vs control rats ([4]; listed as malic acid) | T-maze correct alternation ([4]; both aged groups (10 and 23 months), oral 200 mg/Kg) [%] | intracellular GSH after peroxide insult [5] | intracellular GSH vs non-supplemented cells ([5]; 0-60 minutes post peroxide) |
| --- | --- | --- | --- | --- | --- | --- | --- | --- | --- | --- | --- | --- |
| significantly decrease | O=C(O)CC(O)(CC(=O)O)C(=O)O [citrate, citric acid] | able to curb nSMase activation |  |  |  |  |  |  |  |  |  |  |
|  | O=C(O)CC(O)C(=O)O (stereo not shown) [malate, malic acid] | significantly decrease; also recorded: able to curb nSMase activation | higher levels than non-treated and non-insulted cells; also recorded: prevent critical depletion of malate | ~50 | no ill effects were observed | 92.5 | 85 | statistically significant improvement in spatial memory | significantly improves performance in spatial memory | ≥ 85 | higher levels of GSH than non-treated and non-insulted cells; also recorded: prevent critical depletion of GSH | significantly higher levels of GSH than non-supplemented cells; also recorded: increase intracellular pools of GSH |
